Measurements published in US20050148553A1, “Use of tigecycline, alone, or in combination with rifampin to treat osteomyelitis and/or septic arthritis” (priority 2003, published 2005).
In brackets after ≈: the same amount, converted by molar mass.

Key:
Acinetobacter baumannii = experiment: Compassionate use study, osteomyelitis patient; format: in vivo, human; details: 50 mg every 12 or 24 hours for two months; within one month
Method: The patient was treated with meropenem and tobramycin. […] The patient was then treated with tigecycline for two months with either 50 mg every 12 hours or 50 mg every 24 hours.

[1] = system: methicillin-resistant S. aureus; experiment: microbe, parasite or virus in culture; format: cell-based, Staphylococcus aureus; details: Staphylococcus aureus, MRSA
Method: The minimum inhibitory concentrations (MIC) of tigecycline, vancomycin and rifampin were determined using an antibiotic two-fold tube-dilution method. The minimum bactericidal concentrations were also determined. The limits of sensitivity of this method were 25 μg/ml to 0.20 μg/ml.

[2] = Antibiotic levels in rabbit serum and bone by diffusion bioassay; format: in vivo, New Zealand white rabbits
Method: Normal NZW rabbit serum (Fisher Scientific) and normal, uninfected rabbit tibia bone were used to generate standard curves for tigecycline (Wyeth-Ayerst Research, Pearl River, N.Y.), vancomycin (Abbott Laboratories, Chicago, Ill.), and rifampin (Merrell Pharmaceuticals Inc. Kansas, Mo.). Bioassays were performed with each drug to generate the standard curves for antibiotic concentration in serum and/or tibial bone.
The organism used for the bioassay was Bacillus cereus ATCC11778. Serum standards were prepared using two-fold serial dilutions with either antibiotic to yield concentrations of 25 μg/ml to 0.20 μg/ml drug in Normal NZW rabbit serum. Bone eluate standards were prepared for tigecycline by thoroughly cleaning noninfected rabbit tibias with 70% ethanol in a sterilized fume hood. Each tibia was broken into small chips of approximately 0.5 cm^2 using a grinder. The chips were placed into a sterile, 50 ml conical centrifuge tube and weighed. One milliliter of sterile, 0.9% normal saline was added for each gram of bone chips. The solution was thoroughly vortexed for two minutes. The resulting bone eluate was allowed to shake at 180 rpm in a cold room at 4° C., for 12 hours. The samples were centrifuged at 4000 rpm for 3 minutes prior to assay, to pellet the chips.
The diameter of the zone of growth inhibition around each well was measured, in millimeters. A standard curve was generated for tigecycline concentration in both serum and bone eluate and for vancomycin in serum by plotting the known antibiotic concentration against its resulting zone of inhibition measurement. […]
Serum samples were stored at −70° C. until the bioassay was performed. […] The diameter of the zone of growth inhibition around each well was measured and concentrations of tigecycline were extrapolated from the standard curve.
Peak and trough levels of antibiotic were determined for Groups 2 and 4 at 1 hour (peak) and 12 hour (trough) after the initial antibiotic administration. Antibiotic concentrations were determined by means of a bioassay. […]

CN(C)c1cc(NC(=O)CNC(C)(C)C)c(O)c2c1C[C@H]1C[C@H]3[C@H](N(C)C)C(O)=C(C(N)=O)C(=O)[C@@]3(O)C(O)=C1C2=O [Tigecycline]
clinical outcome (MRI) (Acinetobacter baumannii): resolution of the osteomyelitis
MBC ([1]; read-out: minimum bactericidal concentration (MBC)): 0.2 mg/L (≈ 0.341 µM)
MIC ([1]; read-out: minimum inhibitory concentration (MIC), MRSA study strain, inoculum 10^6 CFU/ml): < 0.2 mg/L
concentration at 12 h ([2]; New Zealand white, rabbit, serum, subcutaneous, uninfected rabbits, 14 mg/kg twice daily, read-out: serum level at 12 hour (trough)): > 0.2 µg/mL
antibiotic serum levels (peaks and troughs) ([2]; infected rabbits, tigecycline 14 mg/kg, vancomycin 30 mg/kg twice daily): above minimum inhibitory concentrations
